In article PMC10179080, “In Vivo and In Vitro Characterization of Close Analogs of Compound KA-11, a New Antiseizure Drug Candidate” (International Journal of Molecular Sciences, 2023):

Columns and labels:
[1] = test system: tonic–clonic seizures in mice; assay: Maximal electroshock seizure (MES) test; assay type: in vivo
Experimental: (§1) The experiments were conducted on adult male albino Swiss mice weighing 22–26 g. The animals were kept in colony cages under standardized laboratory conditions: natural light–dark cycle 12/12 h, temperature 20–24 °C, air humidity 45–65% and free access to tap water and food (chow pellets). After 7 days of adaptation to laboratory conditions, the animals were randomly assigned to experimental groups consisting of 8 mice. The experimental procedures described herein were approved by the Local Ethics Committee in Lublin, Poland (approval numbers: 71/2020 and 13/2021), and were conducted in accordance with EU Directive 2010/63/EU for animal experiments. All efforts were made to minimize animal suffering and to use only the number of animals necessary to produce reliable scientific data according to the 3Rs rule.
(§2) All substances (except PTZ and tetracaine hydrochloride dissolved in water for injections) were suspended in a 1% solution of Tween 80 (Sigma-Aldrich, Saint Louis, MO, USA) in water for injections (Baxter, Warszawa, Poland) or 0.9% NaCl. All drugs were injected intraperitoneally (i.p.) 30 min before all seizure models with 1 mL syringes as a single injection, in a volume of 10 mL/kg. The pretreatment time (30 min) before testing for KA-228 and KA-232 was chosen based on the time to peak of maximum anticonvulsant activity of KA-11 from our previous studies.
The tonic–clonic seizures in mice were evoked by an electric stimulus (an alternating current 25 mA, 50 Hz, maximum output voltage 500 V, 0.2 s) generated by a rodent shocker (Hugo Sachs Elektronik, Freiburg, Germany) and delivered via ear-clip electrodes. […] This experimental procedure has been described in detail in our previous studies.
(§3) The ED50 or TD50 values for tested substances in the acute animal models of seizures were calculated using the computer log-probit analysis. Subsequently, the ED50 and TD50 values (±SEM) were statistically analyzed using one-way analysis of variance (ANOVA) followed by the post hoc Dunnett’s test for multiple comparisons. Differences among values were considered statistically significant if p < 0.05. GraphPad Prism version 8 for Windows (GraphPad Software, San Diego, CA, USA) was used as a statistical software program. The results obtained from the acute ivPTZ test and grip strength test were evaluated by a Student’s t test. Fisher’s exact probability test was used to analyze protection from tonic forelimb and hindlimb extension in the ivPTZ test.

[2] = test system: 6-Hz-induced psychomotor seizures in mice; assay: 6 Hz (32 mA) seizure model; assay type: in vivo
Experimental: as §1, §2
The 6-Hz-induced psychomotor seizures in mice were evoked by current (6 Hz, 0.2 ms rectangular pulse width, 32 mA, 3 s duration) generated by an S48 Square Pulse Stimulator and CCU1 Constant Current Unit (Grass Technologies, West Warwick, RI, USA). The animals were administered with increasing doses of KA-228 and KA-232, and the anticonvulsant activity of each drug was evaluated as the ED50. This experimental procedure has been described in detail in our previous studies.
as §3

[3] = test system: PTZ-induced clonic seizures in mice; assay: scPTZ-induced convulsions; assay type: in vivo; conditions: i.p.
Experimental: as §1, §2
The PTZ-induced clonic seizures in mice were determined after sc administration of PTZ at a dose of 100 mg/kg. The animals were administered with increasing doses of KA-228 and KA-232, and the anticonvulsant activity of each drug was evaluated as the ED50 value. This experimental procedure has been described in detail in our previous studies.
as §3

[4] = test system: Calcium Cav1.2 channels (dihydropyridine site, antagonist radioligand); assay: Radioligand binding, Cav1.2 dihydropyridine site; set-up: species or system rat
Experimental: (§4) Dysfunction of both sodium and calcium ion channels is known to be one of the crucial reasons behind the pathogenesis of seizures. Consequently, these ion channels are molecular targets for several clinically important ASDs such as lacosamide, lamotrigine, carbamazepine, oxcarbazepine and compounds currently under preclinical and clinical studies. Thus, for KA-228 and KA-232, we tested herein their binding profile toward the aforementioned ion channels at concentrations of 10 and 100 µM (Table 3). […] Apart from in vitro studies focused on explaining the mechanism of action, KA-232 was additionally tested for its interaction with the potassium channel (hERG) which is recognized as one of the most important ‘off-targets’ responsible for harmful arrhythmogenic activity. Thus, the interaction of potential drug candidates with hERG must be excluded at an early stage of development.
(§5) Binding studies were carried out commercially in Eurofins Laboratories (Poitiers, France or New Taipei City, Taiwan).

[5] = target: T1, Calcium Cav2.2 channel (antagonist radioligand) (Rattus norvegicus, UniProt Q02294); assay: Radioligand binding, Cav2.2 channel
T1 construct: rat cerebral cortex; tissue Eurofins Laboratories; host or cells: rat cerebral cortex
T1 sequence (Q02294 whole entry): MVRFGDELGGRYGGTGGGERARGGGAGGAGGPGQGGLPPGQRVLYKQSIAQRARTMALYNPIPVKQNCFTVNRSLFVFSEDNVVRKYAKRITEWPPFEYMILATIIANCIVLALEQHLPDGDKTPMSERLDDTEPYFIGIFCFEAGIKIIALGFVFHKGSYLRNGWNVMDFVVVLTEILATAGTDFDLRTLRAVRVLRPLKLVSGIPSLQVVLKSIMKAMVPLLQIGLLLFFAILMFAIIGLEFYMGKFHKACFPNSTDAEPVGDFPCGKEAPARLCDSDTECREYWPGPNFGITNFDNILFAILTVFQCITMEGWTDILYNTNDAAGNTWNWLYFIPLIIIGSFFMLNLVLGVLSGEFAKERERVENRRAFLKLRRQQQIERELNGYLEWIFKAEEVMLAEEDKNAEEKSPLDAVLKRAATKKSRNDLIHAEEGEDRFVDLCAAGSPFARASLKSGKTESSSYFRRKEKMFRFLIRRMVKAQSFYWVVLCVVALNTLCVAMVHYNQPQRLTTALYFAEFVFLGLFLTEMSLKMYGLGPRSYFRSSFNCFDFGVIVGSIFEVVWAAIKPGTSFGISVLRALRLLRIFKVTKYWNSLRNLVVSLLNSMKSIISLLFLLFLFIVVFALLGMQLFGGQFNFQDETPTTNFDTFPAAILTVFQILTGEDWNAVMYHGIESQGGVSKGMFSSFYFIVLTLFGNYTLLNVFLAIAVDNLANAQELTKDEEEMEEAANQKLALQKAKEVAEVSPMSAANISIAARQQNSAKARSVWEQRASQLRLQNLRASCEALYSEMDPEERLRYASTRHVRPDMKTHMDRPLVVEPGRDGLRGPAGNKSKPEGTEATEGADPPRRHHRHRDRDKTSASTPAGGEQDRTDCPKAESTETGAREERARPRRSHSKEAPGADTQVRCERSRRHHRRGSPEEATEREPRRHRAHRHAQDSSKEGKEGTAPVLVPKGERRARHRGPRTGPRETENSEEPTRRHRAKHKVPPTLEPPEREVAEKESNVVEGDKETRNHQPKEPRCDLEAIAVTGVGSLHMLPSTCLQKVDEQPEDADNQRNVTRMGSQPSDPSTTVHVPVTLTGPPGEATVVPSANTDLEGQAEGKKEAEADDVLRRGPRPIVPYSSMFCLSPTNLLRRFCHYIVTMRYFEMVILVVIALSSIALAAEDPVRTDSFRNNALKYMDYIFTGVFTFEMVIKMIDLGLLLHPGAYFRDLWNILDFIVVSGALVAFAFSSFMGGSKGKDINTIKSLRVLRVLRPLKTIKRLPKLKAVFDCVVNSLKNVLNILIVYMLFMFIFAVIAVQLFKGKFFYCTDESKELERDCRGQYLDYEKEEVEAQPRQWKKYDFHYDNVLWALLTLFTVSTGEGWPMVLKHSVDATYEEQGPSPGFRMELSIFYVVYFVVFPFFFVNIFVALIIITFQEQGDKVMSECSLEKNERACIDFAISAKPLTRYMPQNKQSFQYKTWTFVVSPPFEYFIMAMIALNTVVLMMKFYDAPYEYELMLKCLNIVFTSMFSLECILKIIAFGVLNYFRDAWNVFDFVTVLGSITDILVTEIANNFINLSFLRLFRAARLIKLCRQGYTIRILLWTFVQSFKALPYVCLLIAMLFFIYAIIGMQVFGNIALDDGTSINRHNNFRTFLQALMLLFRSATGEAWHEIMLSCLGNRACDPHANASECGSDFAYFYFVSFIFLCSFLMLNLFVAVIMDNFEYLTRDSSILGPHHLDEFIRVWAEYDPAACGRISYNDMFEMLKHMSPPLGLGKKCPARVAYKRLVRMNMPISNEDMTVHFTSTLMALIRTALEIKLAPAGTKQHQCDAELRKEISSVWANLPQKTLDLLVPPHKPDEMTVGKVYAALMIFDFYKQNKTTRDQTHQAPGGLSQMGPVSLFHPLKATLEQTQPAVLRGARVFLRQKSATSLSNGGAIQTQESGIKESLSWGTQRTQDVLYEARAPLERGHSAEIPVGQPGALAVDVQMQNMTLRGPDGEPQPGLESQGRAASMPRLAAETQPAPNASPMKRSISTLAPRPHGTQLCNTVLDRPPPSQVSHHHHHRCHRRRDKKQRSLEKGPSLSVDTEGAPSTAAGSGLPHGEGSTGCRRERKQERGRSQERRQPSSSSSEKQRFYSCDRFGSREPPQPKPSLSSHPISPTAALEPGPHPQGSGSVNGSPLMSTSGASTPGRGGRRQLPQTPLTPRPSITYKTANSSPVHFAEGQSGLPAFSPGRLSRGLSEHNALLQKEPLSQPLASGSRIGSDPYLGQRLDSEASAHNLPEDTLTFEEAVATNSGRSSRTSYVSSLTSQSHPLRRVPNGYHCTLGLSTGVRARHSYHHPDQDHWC
Experimental: as §4, §5

[6] = Metabolic stability in human liver microsomes; assay type: in vitro ADME; conditions: pH 7.4, 120 min, TRIS buffer pH 7.4, 37 °C, read-out: Metabolic stability (% remaining after incubation with HLMs)
Experimental: (§6) The assays and protocols used for evaluating the KA-232 ADME-Tox parameters were similar to those described previously for compound KA-11 [6].
Figure S3 The MetaSite 6.0.1. software prediction of the most probably sites of KA-232
metabolism. The darker red color - the higher probability to be involved in the metabolism
pathway. The blue circle marked the site of compound with the highest probability of metabolic
Figure S4 UPLC spectra after 120 min incubation of compound KA-232 with human liver
microsomes in TRIS buffer pH=7.4 at 37 °C.
reaction mixture. Three metabolites M1, M2 and M3 were identified as well as the products
(m/z= 382.18, m/z=445.23) of compound degradation in physiological buffers (see also Figure […]

CYP2D6 = target: T2, CYP2D6 (Homo sapiens, UniProt P10635); assay: CYP2D6 P450-Glo assay; assay type: in vitro ADME
T2 construct: purchased Promega, Madison, WI, USA
T2 sequence (P10635 whole entry): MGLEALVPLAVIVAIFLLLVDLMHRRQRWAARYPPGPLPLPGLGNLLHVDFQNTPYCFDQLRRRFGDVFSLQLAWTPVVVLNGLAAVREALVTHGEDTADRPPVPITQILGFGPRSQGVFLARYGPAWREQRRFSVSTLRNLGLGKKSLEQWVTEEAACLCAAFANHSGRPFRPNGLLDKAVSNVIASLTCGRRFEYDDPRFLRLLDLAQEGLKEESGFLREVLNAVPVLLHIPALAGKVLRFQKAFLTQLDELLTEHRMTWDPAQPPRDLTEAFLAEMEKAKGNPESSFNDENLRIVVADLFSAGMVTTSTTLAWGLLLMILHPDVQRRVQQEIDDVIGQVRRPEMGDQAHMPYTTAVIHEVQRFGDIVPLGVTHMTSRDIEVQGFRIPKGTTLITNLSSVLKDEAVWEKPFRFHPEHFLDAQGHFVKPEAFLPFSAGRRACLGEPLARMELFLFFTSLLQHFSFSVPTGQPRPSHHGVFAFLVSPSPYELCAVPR
From the text: as §6
(§7) Figure 9 The effect of KA-232 and the reference drug ketoconazole (KE) on CYP3A4 activity (A). The effect of KA-232 and the reference drug quinidine (QD) on CYP2D6 activity (B). The effect of KA-232 and the reference cytostatic drug doxorubicin (DX) on the HepG2 cell line (C) and the SH-SY5Y cell line (D) viability. Statistical significance (* p < 0.05, **** p < 0.0001) was analyzed by Graph Pad Prism 8 software using one-way ANOVA and Bonferroni’s Multiple Comparison Post Test.

hepatoma HepG2 = assay: Hepatotoxicity, HepG2 cell viability; assay type: cell-based, human
From the text: as §6, §7

neuroblastoma SH-SY5Y = assay: Neurotoxicity, SH-SY5Y cell viability; assay type: cell-based, human
From the text: as §6, §7

For CC(C(=O)N1CCN(c2cccc(C(F)(F)F)c2)CC1)N1C(=O)CC(N(C)C)C1=O.Cl (stereo not drawn) [KA-232, 3-(Dimethylamino)-1-(1-oxo-1-(4-(3-(trifluoromethyl)phenyl)piperazin-1-yl)propan-2-yl)pyrrolidine-2,5-dione hydrochloride], the ED50 ([1]; Mus musculus, ip, 30 min before test, read-out: ED50 MES ± SD) was 61.8 ± 26.9 mg/kg, the “TI (TD50/ED50), MES” value ([1]; i.p.) was 2.63 and the ED50 ([2]; Mus musculus, ip, 30 min before test, read-out: ED50 6 Hz ± SD) was 26.5 ± 33.5 mg/kg. The “TI (TD50/ED50), 6 Hz” value ([2]; i.p.) was 6.14, the ED50 ([3]; Mus musculus, scPTZ 100 mg/kg, 30 min before test, read-out: ED50 PTZ ± SD) was 59.3 ± 78.2 mg/kg and the “TI (TD50/ED50), PTZ” value ([3]; scPTZ) was 2.75. For the same compound, the “% Inhibition of Control Specific Binding” value ([4]; 10 µM) was −6.3%, the “% Inhibition of Control Specific Binding” value ([4]; 100 µM) was 18.5% and the “% Inhibition of Control Specific Binding” value ([5]; 10 µM) was “did not interact”. The inhibition at 10 µM ([5]; read-out: % Inhibition of Control Specific Binding) was 10.6%, the remaining at 2 h [6] was ~73% and the “CYP2D6 activity (% of control ± SD)” value (CYP2D6; 10 µM) was 100.96 ± 2.57 % of control. The “effect on CYP2D6 activity” value (CYP2D6; at 0.1 and 1 µM) was “slight induction”, the “HepG2 viability (% of control ± SD)” value (hepatoma HepG2; 10 µM) was 89.44 ± 10.22 % of control and the HepG2 cell viability (hepatoma HepG2; 100 µM) was “approximately 78 % of control”. For the same compound, the “SH-SY5Y viability (% of control ± SD)” value (neuroblastoma SH-SY5Y; 10 µM) was 99.44 ± 5.89 % of control, the “neurotoxic effect on SH-SY5Y cell line” value (neuroblastoma SH-SY5Y; all used doses) was “no neurotoxic effect” and the melting point was 141.4 to 143.5 °C.
